Patent EP3810127B1, “USE OF MILBEMYCIN OXIME AGAINST SEA LICE ON FISH” (Pharmaq AS, priority 2018, dated 2019)
Like-named read-outs stand apart in the source and are kept apart here.

Experiments:
[1] = tested on: copepodids from salmon lice with reduced sensitivity; assay: in-vitro 1 hour exposure of copepodids in sea water; settings: exposed 1 hour, 96 hours post-exposure
[2] = tested on: preadult salmon lice with reduced sensitivity; assay: in-vitro 1 hour exposure of preadult lice in sea water
[3] = tested on: adult reduced sensitivity lice; assay: in-vitro 1 hour exposure of adult lice in sea water; set-up: species or system salmon lice; settings: exposed 1 hour, 48 hours post-exposure
[4] = tested on: adult stages of L. salmonis; assay: in-vivo bath exposure of Atlantic salmon infested with adult lice; settings: one hour bath, female lice counted on Day 3
Description: In a separate in-vivo study, Atlantic salmon infested with adult stages of L. salmonis were housed in a 500L tank with sea water at 12°C before drug exposure. Fish were randomly extracted from the holding tank and distributed to the treatment containers (n=14/container). […] Fish were then transferred to observation tanks. Fish were dosed with 500ppb, 250ppb, 125ppb, and 62.5ppb milbemycin oxime. […] On Day 3, fish were terminated and the number of female salmon lice were counted on each of the fish. Milbemycin oxime was 100% efficacious against the sea lice at all dose levels.

salmon lice = settings: one hour bath on Day 1, lice counted on Day 3
sea lice [5] = settings: injectable composition, cited from earlier work
sea lice [6] = settings: cited from earlier work

milbemycin oxime
state of copepodids ([1]; 12.5ppb): moribund | state of copepodids ([1]; 25ppb): moribund | state of copepodids ([1]; 50ppb): moribund | state of preadult lice ([2]; 5ppb, exposed 1 hour, 48 hours post-exposure): all were moribund | more effective at killing sea lice than VS55759 ([2]; milbemycin oxime at 5ppb compared with VS55759 at 50ppb (60% morbidity)): at least 10 x | moribund rate ([3]; 2ppb): 82% | state of adult lice ([3]; 10ppb): all dead or moribund | state of adult lice ([3]; 25ppb): all dead or moribund | efficacious against the sea lice ([4]; 62.5ppb): 100% | efficacious against the sea lice ([4]; 125ppb): 100% | efficacious against the sea lice ([4]; 250ppb): 100% | efficacious against the sea lice ([4]; 500ppb): 100% | efficacious against adult sea lice (salmon lice; 7.8ppb): 100% | Efficacy (salmon lice; 15.6ppb, remaining living lice loosely attached to the caudal fin): 66.6% | efficacious against adult sea lice (salmon lice; 31.3ppb): 100% | efficacious against adult sea lice (salmon lice; 62.5ppb): 100% | efficacy against sea lice (sea lice [5]; dose of 0.5mg/kg): not efficacious

O=C(NC(=O)c1c(F)cccc1F)Nc1cc(Cl)c(OC(F)(F)C(F)C(F)(F)F)cc1Cl (stereo not drawn) [lufenuron]
efficacy against sea lice (sea lice [5]; 50mg/kg): provided efficacy

23(S)-t-butyloxyimino-25(S)-t-butyl milbemycin X [VS55759]
efficacious against sea lice (sea lice [6]; 0.1ppm (100ppb) in a bath solution): efficacious | effective against sea lice (sea lice [6]; 100ppb dose, immersion): 100%

O=C(NC(=O)c1c(F)cccc1F)Nc1cc(Cl)c(OC(F)(F)C(F)F)c(Cl)c1 [hexaflumuron]
efficacy against sea lice (sea lice [5]; 50mg/kg): provided efficacy
